Columns and labels:
[1] = target: T1, composite Cel-L-AChR with Hco-UNC-38 (29/63/L1/L8 + Hco-UNC-38); assay: two-electrode voltage clamp, Xenopus oocytes; type: cell-based, Caenorhabditis elegans; Haemonchus contortus; settings: read-out: Lev EC50; agonist; responses normalized to 100 μM ACh
T1 construct: mixed-species complex of whole subunits; cRNA in Xenopus laevis oocytes with ancillary RIC-3, UNC-50, UNC-74; Cel-UNC-38 replaced by H. contortus UNC-38

[2] = target: T2, composite Cel-L-AChR with Ode-ACR-8 (29/38/63/L1 + Ode-ACR-8); assay: two-electrode voltage clamp, Xenopus oocytes; type: cell-based, Caenorhabditis elegans; Oesophagostomum dentatum; settings: read-out: Lev EC50; full agonist; responses normalized to 100 μM ACh
T2 construct: mixed-species complex of whole subunits; cRNA in Xenopus laevis oocytes with C. elegans RIC-3, UNC-50, UNC-74; LEV-8 replaced by O. dentatum ACR-8

[3] = target: T3, composite Cel-L-AChR with Asu-ACR-8 (29/38/63/L1 + Asu-ACR-8); assay: two-electrode voltage clamp, Xenopus oocytes; type: cell-based, Caenorhabditis elegans; Ascaris suum; settings: read-out: Lev EC50; agonist; responses normalized to 100 μM ACh
T3 construct: mixed-species complex of whole subunits; cRNA in Xenopus laevis oocytes with C. elegans RIC-3, UNC-50, UNC-74; LEV-8 replaced by A. suum ACR-8

[4] = target: T4, Cel-L-AChR (29/38/63/L1 + Cel-LEV-8); assay: two-electrode voltage clamp, Xenopus oocytes; type: cell-based, Caenorhabditis elegans; settings: partial agonist; responses normalized to 100 μM ACh
T4 construct: gene unc-38; full-length subunits from cRNA in Xenopus laevis oocytes with ancillary C. elegans RIC-3, UNC-50, UNC-74; heteropentamer

[5] = target: T5, composite Cel-L-AChR with Min-ACR-8 (29/38/63/L1 + Min-ACR-8); assay: two-electrode voltage clamp, Xenopus oocytes; type: cell-based, Caenorhabditis elegans; Meloidogyne incognita; settings: agonist; responses normalized to 100 μM ACh; read-out: Lev EC50
T5 construct: mixed-species complex of whole subunits; cRNA in Xenopus laevis oocytes with C. elegans RIC-3, UNC-50, UNC-74; LEV-8 replaced by M. incognita ACR-8

[6] = target: T6, composite Cel-L-AChR with Hco-ACR-8 (29/38/63/L1 + Hco-ACR-8); assay: two-electrode voltage clamp, Xenopus oocytes; type: cell-based, Caenorhabditis elegans; Haemonchus contortus; settings: read-out: Lev EC50; full agonist; responses normalized to 100 μM ACh
T6 construct: mixed-species complex of whole subunits; cRNA in Xenopus laevis oocytes with C. elegans RIC-3, UNC-50, UNC-74; LEV-8 replaced by H. contortus ACR-8

[7] = target: T7, composite Cel-L-AChR with Hco-UNC-63 (29/38/L1/L8 + Hco-UNC-63); assay: two-electrode voltage clamp, Xenopus oocytes; type: cell-based, Caenorhabditis elegans; Haemonchus contortus; settings: read-out: Lev EC50; agonist; responses normalized to 100 μM ACh
T7 construct: mixed-species complex of whole subunits; cRNA in Xenopus laevis oocytes with ancillary RIC-3, UNC-50, UNC-74; Cel-UNC-63 replaced by H. contortus UNC-63

[8] = system: T4, Cel-L-AChR (29/38/63/L1 + Cel-LEV-8); set-up: species or system Xenopus laevis oocytes; Agonist-evoked currents in cRNA-injected oocytes, concentration-response normalized to 100 uM ACh; settings: Imax as % of 100 uM ACh response; agonist
Source text: (§1) The C. elegans L-AChR can be robustly expressed in Xenopus oocytes by co-expressing cRNAs from the five L-AChR subunits (UNC-38, UNC-63, UNC-29, LEV-1 and LEV-8) in combination with cRNA encoding three ancillary proteins (UNC-74, UNC-50 and RIC-3). Noticeably, the absence of any one of these AChR subunits or ancillary proteins from the injected cRNA mix leads to the loss of expression of functional receptor highlighting their major individual requirement. Taking advantage of this, we complemented the Cel-L-AChR by replacing the Cel-LEV-8 by ACR-8 subunits from distinct parasitic nematode species. As a preliminary set of experiments, cRNAs encoding ACR-8 from parasitic nematodes were micro-injected with the three ancillary proteins in order to test their ability to form a homomeric channel. […] Therefore, cRNAs encoding Cel-UNC-38, Cel-UNC-63, Cel-UNC-29, Cel-LEV-1, Cel-UNC-74, Cel-UNC-50 and Cel-RIC-3 in combination with either Hco-ACR-8 / Ode-ACR-8 / Asu-ACR-8 / Dim-ACR-8 / Min-ACR-8 were co-injected into Xenopus oocytes. Three days after injection, each of these combinations produced robust responses to 100μM ACh in oocytes (S3 Fig). Similarly, application of 100μM levamisole (Lev) elicited a response for all complemented Cel-L-AChRs. Dose response curves were generated for both ACh and Lev in complemented L-AChRs containing ACR-8 subunits from parasitic species (Fig 2 and Table 1). In comparison to the C. elegans L-AChR, we observed a drastic reduction of the ACh EC50 values in the composite L-AChRs complemented with Hco-ACR-8, Ode-ACR-8, Asu-ACR-8 and Dim-ACR-8. […] A. Representation of the putative arrangement of the C. elegans L-AChR subunits expressed in Xenopus oocytes and dose-response relationships for ACh (red triangle, n = 8) and Lev (white circle, n = 8). B-F. Representation of the putative subunit arrangement of the composite C. elegans L-AChRs including Cel-UNC-29, Cel-UNC-38, Cel-UNC-63, Cel-LEV-1 and the ACR-8 subunit from a parasitic nematode species: H. contortus ACR-8 (B), O. dentatum ACR-8 (C), A. suum ACR-8 (D), D. immitis ACR-8 (E) and M. incognita ACR-8 (F). Dose-response relationships for ACh and Lev are indicated by red triangles (n = 5–11) and white circles (n = 4–9), respectively. G-H. Representation of the putative subunit arrangement of the composite C. elegans L-AChRs with Hco-UNC-38 replacing Cel-UNC-38 (G) or Hco-UNC-63 replacing Cel-UNC-63 (H). Dose-response relationships for ACh and Lev are indicated by red triangles (n = 7–10) and white circles (n = 7–9), respectively. All responses are normalized to 100μM ACh. Results are shown as the mean ± se. […]

[9] = system: T3, composite Cel-L-AChR with Asu-ACR-8 (29/38/63/L1 + Asu-ACR-8); set-up: species or system Xenopus laevis oocytes; Agonist-evoked currents in cRNA-injected oocytes, concentration-response normalized to 100 uM ACh; settings: Imax as % of 100 uM ACh response; agonist
Source text: as §1

[10] = system: T7, composite Cel-L-AChR with Hco-UNC-63 (29/38/L1/L8 + Hco-UNC-63); set-up: species or system Xenopus laevis oocytes; Agonist-evoked currents in cRNA-injected oocytes, concentration-response normalized to 100 uM ACh; settings: Imax as % of 100 uM ACh response; agonist
Source text: as §1

[11] = system: T5, composite Cel-L-AChR with Min-ACR-8 (29/38/63/L1 + Min-ACR-8); set-up: species or system Xenopus laevis oocytes; Agonist-evoked currents in cRNA-injected oocytes, concentration-response normalized to 100 uM ACh; settings: Imax as % of 100 uM ACh response; agonist
Source text: as §1

[12] = system: composite Cel-L-AChR with Hco-UNC-38 (29/63/L1/L8 + Hco-UNC-38); set-up: species or system Xenopus laevis oocytes; settings: Imax as % of 100 uM ACh response; agonist
[13] = system: composite Cel-L-AChR with Hco-ACR-8 (29/38/63/L1 + Hco-ACR-8); set-up: species or system Xenopus laevis oocytes; settings: Imax as % of 100 uM ACh response; agonist
[14] = system: composite Cel-L-AChR with Ode-ACR-8 (29/38/63/L1 + Ode-ACR-8); set-up: species or system Xenopus laevis oocytes; settings: Imax as % of 100 uM ACh response; agonist

T3 sequence (A0A2I6TEN1 25-521): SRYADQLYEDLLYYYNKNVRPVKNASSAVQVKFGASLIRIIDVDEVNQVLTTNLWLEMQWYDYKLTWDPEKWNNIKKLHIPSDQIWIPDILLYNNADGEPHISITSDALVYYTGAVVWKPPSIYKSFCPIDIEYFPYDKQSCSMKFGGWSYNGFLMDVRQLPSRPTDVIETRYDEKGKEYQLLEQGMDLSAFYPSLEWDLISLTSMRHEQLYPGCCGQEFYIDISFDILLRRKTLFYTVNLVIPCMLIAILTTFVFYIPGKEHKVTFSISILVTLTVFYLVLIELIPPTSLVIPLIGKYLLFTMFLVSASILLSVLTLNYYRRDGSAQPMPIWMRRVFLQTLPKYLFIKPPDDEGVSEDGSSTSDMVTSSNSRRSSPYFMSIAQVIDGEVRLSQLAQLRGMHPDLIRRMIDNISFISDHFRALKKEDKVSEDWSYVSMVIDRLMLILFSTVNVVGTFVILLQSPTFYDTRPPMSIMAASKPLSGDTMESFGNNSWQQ
T3 sequence (Q23022 17-511, further chain): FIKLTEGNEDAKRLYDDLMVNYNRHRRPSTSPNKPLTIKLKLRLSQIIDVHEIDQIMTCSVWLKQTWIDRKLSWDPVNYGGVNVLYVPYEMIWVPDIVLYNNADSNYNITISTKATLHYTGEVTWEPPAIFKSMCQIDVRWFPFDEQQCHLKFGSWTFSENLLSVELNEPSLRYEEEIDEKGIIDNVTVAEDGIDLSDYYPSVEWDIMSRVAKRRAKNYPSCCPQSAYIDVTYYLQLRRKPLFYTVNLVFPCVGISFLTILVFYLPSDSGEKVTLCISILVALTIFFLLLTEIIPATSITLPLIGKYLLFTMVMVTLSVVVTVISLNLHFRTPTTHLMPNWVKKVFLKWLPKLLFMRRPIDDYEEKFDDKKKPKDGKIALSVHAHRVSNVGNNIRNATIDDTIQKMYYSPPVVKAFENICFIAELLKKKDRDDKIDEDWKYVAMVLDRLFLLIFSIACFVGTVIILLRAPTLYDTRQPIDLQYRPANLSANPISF
T3 sequence (Q9N587 24-502, further chain): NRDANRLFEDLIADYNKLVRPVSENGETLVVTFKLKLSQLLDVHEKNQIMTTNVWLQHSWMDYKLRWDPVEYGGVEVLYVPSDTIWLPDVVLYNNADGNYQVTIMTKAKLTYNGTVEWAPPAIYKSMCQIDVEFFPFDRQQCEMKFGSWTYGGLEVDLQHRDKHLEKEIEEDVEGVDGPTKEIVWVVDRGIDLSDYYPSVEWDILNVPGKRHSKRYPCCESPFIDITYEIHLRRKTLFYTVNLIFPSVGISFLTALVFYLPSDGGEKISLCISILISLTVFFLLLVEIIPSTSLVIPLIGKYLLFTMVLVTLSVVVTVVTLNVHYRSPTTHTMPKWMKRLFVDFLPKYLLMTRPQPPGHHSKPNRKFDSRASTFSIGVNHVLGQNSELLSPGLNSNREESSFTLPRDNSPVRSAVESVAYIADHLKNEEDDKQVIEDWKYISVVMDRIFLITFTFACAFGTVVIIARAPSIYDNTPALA
T3 sequence (P48181 27-493, further chain): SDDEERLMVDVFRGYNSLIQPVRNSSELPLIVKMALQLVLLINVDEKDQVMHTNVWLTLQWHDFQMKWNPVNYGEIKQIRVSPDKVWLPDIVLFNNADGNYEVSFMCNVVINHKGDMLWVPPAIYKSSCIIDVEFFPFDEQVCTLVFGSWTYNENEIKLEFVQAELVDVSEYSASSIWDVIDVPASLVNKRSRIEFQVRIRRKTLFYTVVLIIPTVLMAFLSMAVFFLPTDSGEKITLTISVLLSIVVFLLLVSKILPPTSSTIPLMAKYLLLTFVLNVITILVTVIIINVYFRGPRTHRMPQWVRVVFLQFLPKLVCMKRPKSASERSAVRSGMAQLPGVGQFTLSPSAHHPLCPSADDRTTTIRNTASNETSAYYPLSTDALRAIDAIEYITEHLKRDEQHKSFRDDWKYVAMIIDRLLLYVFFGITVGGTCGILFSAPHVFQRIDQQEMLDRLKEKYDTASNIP
T3 sequence (Q27218 32-507, further chain): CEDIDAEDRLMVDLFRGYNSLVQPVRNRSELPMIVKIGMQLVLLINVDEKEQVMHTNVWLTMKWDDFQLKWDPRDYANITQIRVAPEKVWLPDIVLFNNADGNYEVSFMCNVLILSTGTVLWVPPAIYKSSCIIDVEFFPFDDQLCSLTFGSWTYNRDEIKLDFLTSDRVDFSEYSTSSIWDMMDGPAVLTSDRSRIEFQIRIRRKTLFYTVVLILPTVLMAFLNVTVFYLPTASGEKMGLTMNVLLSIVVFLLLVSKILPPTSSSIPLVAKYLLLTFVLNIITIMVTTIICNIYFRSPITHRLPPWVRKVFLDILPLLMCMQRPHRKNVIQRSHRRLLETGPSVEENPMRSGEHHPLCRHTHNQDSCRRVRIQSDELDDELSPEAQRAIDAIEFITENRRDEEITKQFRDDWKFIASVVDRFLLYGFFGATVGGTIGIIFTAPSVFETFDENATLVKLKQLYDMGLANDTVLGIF
T5 sequence (A0A2I6TEK4 19-527): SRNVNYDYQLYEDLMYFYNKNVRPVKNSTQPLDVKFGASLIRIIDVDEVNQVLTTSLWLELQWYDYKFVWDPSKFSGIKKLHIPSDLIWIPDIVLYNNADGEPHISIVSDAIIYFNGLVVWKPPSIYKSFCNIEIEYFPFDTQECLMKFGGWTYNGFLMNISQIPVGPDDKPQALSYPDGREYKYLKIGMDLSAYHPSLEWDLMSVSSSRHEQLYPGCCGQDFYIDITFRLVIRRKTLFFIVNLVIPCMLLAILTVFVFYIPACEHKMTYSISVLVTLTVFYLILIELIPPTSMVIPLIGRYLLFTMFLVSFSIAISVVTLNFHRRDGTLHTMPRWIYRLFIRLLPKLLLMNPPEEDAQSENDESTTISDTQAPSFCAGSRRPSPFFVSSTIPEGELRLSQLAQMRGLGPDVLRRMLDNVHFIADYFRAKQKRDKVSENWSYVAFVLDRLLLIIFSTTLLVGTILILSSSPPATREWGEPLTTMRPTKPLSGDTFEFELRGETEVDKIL
T5 sequence (Q23022 17-511, further chain): as the sequence (Q23022 17-511, further chain) above
T5 sequence (Q9N587 24-502, further chain): as the sequence (Q9N587 24-502, further chain) above
T5 sequence (P48181 27-493, further chain): as the sequence (P48181 27-493, further chain) above
T5 sequence (Q27218 32-507, further chain): as the sequence (Q27218 32-507, further chain) above
T7 sequence (D6MYF4 22-504): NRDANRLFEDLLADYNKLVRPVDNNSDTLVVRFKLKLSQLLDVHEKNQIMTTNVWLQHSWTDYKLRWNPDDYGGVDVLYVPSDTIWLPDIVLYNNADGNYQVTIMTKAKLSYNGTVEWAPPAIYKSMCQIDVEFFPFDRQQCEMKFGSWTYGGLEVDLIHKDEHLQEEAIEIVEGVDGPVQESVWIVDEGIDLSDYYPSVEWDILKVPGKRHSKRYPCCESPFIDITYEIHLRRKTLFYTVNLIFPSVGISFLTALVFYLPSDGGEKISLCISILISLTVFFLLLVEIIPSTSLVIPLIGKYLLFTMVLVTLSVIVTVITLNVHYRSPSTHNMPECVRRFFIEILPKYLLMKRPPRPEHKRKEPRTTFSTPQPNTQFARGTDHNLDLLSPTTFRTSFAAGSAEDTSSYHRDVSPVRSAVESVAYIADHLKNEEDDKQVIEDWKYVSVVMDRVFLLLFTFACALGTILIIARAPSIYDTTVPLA
T7 sequence (Q23022 17-511, further chain): as the sequence (Q23022 17-511, further chain) above
T7 sequence (P48181 27-493, further chain): as the sequence (P48181 27-493, further chain) above
T7 sequence (Q27218 32-507, further chain): as the sequence (Q27218 32-507, further chain) above
T7 sequence (Q93329 26-531, further chain): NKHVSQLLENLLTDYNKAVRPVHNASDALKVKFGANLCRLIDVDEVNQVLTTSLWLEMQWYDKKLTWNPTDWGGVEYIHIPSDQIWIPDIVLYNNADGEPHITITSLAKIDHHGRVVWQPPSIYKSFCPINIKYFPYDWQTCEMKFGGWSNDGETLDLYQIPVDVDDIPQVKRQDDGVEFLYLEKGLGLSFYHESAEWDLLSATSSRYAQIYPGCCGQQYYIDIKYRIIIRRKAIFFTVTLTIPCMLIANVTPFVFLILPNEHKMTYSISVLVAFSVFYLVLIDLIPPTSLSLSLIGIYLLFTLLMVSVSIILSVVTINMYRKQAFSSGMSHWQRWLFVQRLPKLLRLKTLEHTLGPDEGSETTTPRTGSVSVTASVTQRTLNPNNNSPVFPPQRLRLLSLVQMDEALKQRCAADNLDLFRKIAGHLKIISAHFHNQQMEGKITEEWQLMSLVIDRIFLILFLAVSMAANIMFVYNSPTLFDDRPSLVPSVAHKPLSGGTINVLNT
T4 sequence (Q23022 17-511): as the sequence (Q23022 17-511, further chain) above
T4 sequence (Q9N587 24-502, further chain): as the sequence (Q9N587 24-502, further chain) above
T4 sequence (P48181 27-493, further chain): as the sequence (P48181 27-493, further chain) above
T4 sequence (Q27218 32-507, further chain): as the sequence (Q27218 32-507, further chain) above
T4 sequence (Q93329 26-531, further chain): as the sequence (Q93329 26-531, further chain) above

c1ccc([C@H]2CN3CCSC3=N2)cc1 [levamisole]
EC50 [1]: 13.5 ± 1.5 µM | EC50 [2]: 11.7 ± 1.3 µM | EC50 [3]: 5.8 ± 1.2 µM | EC50 [4]: 6.4 ± 1.2 µM | EC50 [5]: 10.1 ± 1.1 µM | EC50 [6]: 2.7 ± 1.4 µM | EC50 [7]: 12.1 ± 1.2 µM | Lev Imax [8]: 49.1±10.2% | Lev Imax [9]: 51.6 ±7.0% | Lev Imax [10]: 55.9 ±9.4% | Lev Imax [11]: 33.9 ±13.9% | Lev Imax [12]: 51.1 ±4.5% | Lev Imax [13]: 109.5 ±20.7% | Lev Imax [14]: 112.4 ±19.0%

From PMC5931475, “Deciphering the molecular determinants of cholinergic anthelmintic sensitivity in nematodes: When novel functional validation approaches highlight major differences between the model Caenorhabditis elegans and parasitic species” (PLoS Pathogens, 2018)
